Marks after values point to notes of the source that are not given here.
Key:
developing embryos = assay: Embryo development at E14.5 after daily LCM administration to dams (litters, resorptions, litter size, malformations); assay type: in vivo, mice; details: for CR length (cm): crown-rump
Experimental: Thus, we used 10, 40, 80 and 120 mg/kg in mice, which corresponded to 56.7, 227, 454 and 681 mg/day in humans, considering an average weight of human to be 70 kg and that of mice to be 30 gr[52],[55]. Controls were administered the vehicle alone: saline solution 0.9% w/v. […] A total of 32 dams were initially treated daily, two days before mating and until the 14th day post-coitus. […] In the breastfeeding period, females were not under treatment given that a person will bottle feed the baby if they were on medication.
Maternal weights were assessed at the end of the treatment periods. After 14.5 days of gestation (embryonic day14.5, E14.5), blood was extracted from the orbital sinus of the pregnant dams under anaesthesia (70 mg/kg Thiobarbital: Braun Medical S.A. Spain), as described previously[56] and sacrificed by neck dislocation immediately after. Blood samples were centrifuged immediately, and the serum was collected and stored at -80 °C for further chemical analysis.
The E14.5 embryos were collected and fixed in 4% paraformaldehyde for 4 h and then kept at 4 °C in 70% ethanol. The litter size of each dam was recorded, and embryos were assessed for external malformations and photographed on a stereomicroscope (SteREO Discovery V8 + AxioCam Erc8, Zeiss, Oberkochen, Germany). The crown-rump lengths of embryos were measured in the photographs using ImageJ software (downloaded as a free software package from the public domain: http://rsb.info.nih.gov/ij/download.html) and based on the reference points described previously. Embryos were then embedded in paraffin, sectioned at 10, 7 and 5 μm, and stained with Ehrlich Haematoxylin & Eosin (H&E) for histology analysis. Representative sections were selected from at least three embryos for each condition and photographed on an Olympus (Tokyo, Japan) BX-61 photomicroscope.

adult male mice [1] = assay: Pain assay (hot plate); assay type: in vivo; details: 120 mg/kg LCM during gestation; at 52 and 55 degrees relative to control
Experimental: (§1) All trials were performed by an experimenter blind to the drug treatment.
Pain assay. Pain behaviour was assessed in mice using the hot plate. For the hot-plate test, a glass cylinder (16 cm high, 16 cm in diameter) was used to constrain the mice to the heated surface of the plate. The plate surface was maintained at 50-55 ± 0.5 °C and the latency to commence paw-licking was measured, using a 30 s cut-off time for each of the tested temperatures. Each temperature was tested with 1h apart.

adult male mice [2] = assay: Startle response/prepulse inhibition (PPI) test; assay type: in vivo
Experimental: as §1
Startle response/prepulse inhibition (PPI) test. Animals were placed individually inside a startle chamber (Cibertec S.A., Madrid, Spain) and the startle response was measured using a piezoelectric accelerometer controlled by a computer. The digitized signal was averaged from 25–30 recordings. For training, the mouse was placed in the startle chamber for an acclimation period of 3 min. Baseline responses were averaged after the presentation of 20 sounds (125 dB, 100 ms long) and from this phase, the average response and peak latencies, and the peak response were determined. During PPI trials, the same 125-dB 100-ms burst was preceded (250 ms) by a prepulse stimulus of 85 dB, lasting for 50 ms. Trials including prepulse stimuli were randomly presented with normal startle stimuli, the final total being 25 of each, and the proportion of PPI was determined as [(1-prepulse/startle)*100]. The ambient background noise was 70 dB.

adult male mice [3] = assay: Tail suspension test; assay type: in vivo; details: 5 minutes
Experimental: as §1
Tail suspension test. Depression-like behaviour in mice was determined by measuring the time spent immobile in the tail suspension test. Mice were suspended above the floor by attaching the end of their tail to wire netting, and the time spent immobile during a 5 min test session was measured.

[4] = LCM and related compounds (RC) in embryos and mothers' serum by high-resolution MS/MSe; assay type: in vivo, mice; details: Maternal Dose 10 mg/kg
Experimental: Samples were extracted as described previously[25] with slight modifications. Briefly, embryos were rinsed with cold saline and ultrapure water, and their wet-weight was determined. […] The mixture was vortexed vigorously for 3 min and centrifuged at 13,000 g for 5 min. The supernatant was transferred to a new Eppendorf tube and evaporated to dryness in a stream of nitrogen gas. The residue was reconstituted with 50 µL of LC-MS Ultrapure water, vortexed for 20 s and centrifuged at 13,000 g for 5 min. The supernatant was transferred to a conic micro insert to be injected onto the UHPLC system.
MS spectra data were collected between m/z 50 and 1000, and MS/MS spectra were registered between 50-300 Da. […] The MS^e procedure was used to identify metabolites in positive ionization mode. UPLC–QTOF-MS^e detection collects data using two scan functions, providing fragment ion information without precursor ion selection. A characteristic m/z in the low energy function allows identification through the fragment ions obtained with the high collision energy function. Two functions were acquired at different collision energies: a low energy function obtained at 2 eV; and a high-energy function obtained using a collision energy ramp ranging from 15 to 30 eV and spectra data collected between m/z 50 and 800. The data station operating the software was a MassLynx version 4.1, while metabolites were identified by means of Metabolynx XS (Waters, Micromass, Manchester, UK).
In this work the following routes were selected for these searches: phase I metabolites Reduction (+H2), Hydroxylation (O), Hydration (+H2O), 2xHydroxylation (+O2), Deacetylation (-C2H2O) and Demethylation (-CH2); and phase II metabolites Acetylation (+C2H2O) and Glucuronide (+C6H8O6).

[5] = 10 mg/kg LCM daily i.p. to dams
[6] = 40 mg/kg LCM daily i.p. to dams
[7] = 80 mg/kg LCM daily i.p. to dams
[8] = 120 mg/kg LCM daily i.p. to dams
[9] = High doses (80 or 120 mg/kg LCM daily i.p. to dams)
[10] = High doses (80 or 120 mg/kg LCM daily i.p. to dams), mean ± S.E.M., p < 0.05
[11] = Low doses (10 or 40 mg/kg LCM daily i.p. to dams)

## COC[C@@H](NC(C)=O)C(=O)NCc1ccccc1 [LCM, R-2-acetamido-N-benzyl-3-methoxypropionamide]
Developing embryos; [5]
  Emb (no.): 117 no.
  Lost Litter (no.): 0 no.
  Malformation (%): 4.3%
  Resorpt (%): 4%
  CR length (cm): 1.18 cm
Developing embryos; [6]
  Emb (no.): 67 no.
  Lost Litter (no.): 0 no.
  Malformation (%): 7.4%
  Resorpt (%): 1.5%
  CR length (cm): 1.09 cm
Developing embryos; [7]
  Emb (no.): 41 no.
  Lost Litter (no.): 1 no.
  Malformation (%): 12.2%
  Resorpt (%): 0%
  CR length (cm): 1.03 cm
Developing embryos; [8]
  Emb (no.): 73 no.
  Lost Litter (no.): 1 no.
  Malformation (%): 2.7%
  Resorpt (%): 2.5%
  CR length (cm): 1.08 cm
Developing embryos; [9]
  Emb (no.): 114 no.
  Lost Litter (no.): 2 no.
  Malformation (%): 6.1%
  Resorpt (%): 1.75%
Developing embryos; [10]
  CR length (cm): 1.06 ± 0.08^b cm
  Emb/dam: 9.5 ± 0.4^b
Developing embryos; [11]
  Emb (no.): 184 no.
  Lost Litter (no.): 0 no.
  Malformation (%): 5.4%
  Resorpt (%): 3.2%
Developing embryos; Low doses (10 or 40 mg/kg LCM daily i.p. to dams), mean ± S.E.M.
  CR length (cm): 1.1 ± 0.1 cm
Developing embryos; high doses of LCM (80 or 120 mg/kg), p = 0.02
  number of embryos/litter: 9.5 ± 0.4 embryo/litter
Developing embryos; low doses of LCM (10 or 40 mg/kg)
  number of embryos/litter: 12.2 ± 0.1 embryos/litter
Adult male mice [1]
  thermal nociception in the hot plate test: significant hyperalgesia
Adult male mice [2]; 40 mg/kg in utero
  PPI of the acoustic startle response: 54.85 ± 4.27%
Adult male mice [2]; 120 mg/kg in utero
  PPI of the acoustic startle response: 23.19 ± 7.9%
Adult male mice [2]; LCM administration during gestation
  acoustic startle reflex parameters (peak latencies, maximum peak response): did not modify any parameters
Adult male mice [3]; 40 mg/kg in utero
  immobility time (tail suspension test): 82.58 ± 7.38 s
Adult male mice [3]; 120 mg/kg in utero
  immobility time (tail suspension test): 109.0 ± 7.69 s
[4]
  Embryos in which the LCM compound is present: Embryo1 and 2

From article PMC7203245, “Lacosamide intake during pregnancy increases the incidence of foetal malformations and symptoms associated with schizophrenia in the offspring of mice” (Scientific Reports, 2020)
